According to patent US7973056B2, “Triazole derivative or salt thereof” (Fujifilm Finechemicals Co., Ltd, priority 2008, dated 2011):
Values after ≈ are worked out from the molar mass of the structure shown.

Columns and labels:
[1] = system: Candida albicans TIMM 1623; experiment: Antifungal activity test (in vivo), mouse systemic infection model; design: survival rate: unit not given here; conditions: for T/C (%): survival time of administration group / control group x100
Description: With respect to compounds I-1, I-3 and I-6 obtained in Examples 1, 3 and 6 respectively, therapeutic effects at the time of subcutaneous administration of compounds I-1, I-3 and I-6 on a mouse systemic infection model by Candida albicans TIMM 1623 were tested.
The test was carried out using 5 animals for each of the drug administration groups and Negative control group (sterile physiological saline administration group).
Each of compounds I-1, I-3 and I-6 was dissolved in and diluted with dimethyl sulfoxide (DMSO; Wako Pure Chemical Industries, Ltd.) and then prepared into a predetermined concentration by diluting with sterile physiological saline.
As the control experiment, Fluconazole (FLCZ, Flanos intravenous drip solution 100 mg; TOYAMA CHEMICAL CO, LTD.) diluted to a predetermined concentration with sterile physiological saline was used.
On the next day of the receipt of animals, body weights of mice were measured and CP (crude protein) was intraperitoneally administered at a dose of 200 mg/kg based on the individual body weight, and then they were reared for 3 days.
Cells of C. albicans TIMM 1623 cultured overnight at 35° C. on SDA (Sabouraud dextrose agar; Eiken Chemical Co., Ltd.) plate medium were suspended in sterile physiological saline and used as the Stock solution, and a portion thereof was diluted with 10% formalin (Wako Pure Chemical Industries, Ltd.). The number of cells in the diluted liquid was counted under a biological microscope using a hemocytometer, and then an inoculum was prepared by diluting the stock solution with sterile physiological saline (about 1.5×10^5 cells/ml). By inoculating 0.2 ml of this cell suspension through caudal vein, infection was induced. In this connection, the number of viable cells in the inoculum was verified by spreading the cell suspension optionally diluted with sterile physiological saline on an SDA plate medium and then culturing at 35° C. Each of the substances to be tested, control substance or sterile physiological saline was subcutaneously administered after 2 hours of the infection and for 3 days starting on the next day of infection once a day, a total of 4 times. After measuring individual body weight on the next day of infection, CP was again administered intraperitoneally at a dose of 100 mg/kg. The number of survived mice was observed and recorded for 14 days starting on the next day of infection.
The results were shown in Table 3 below and FIGS. 1A to 1D. In the table, the administration dose of the compounds of the present invention and the comparative compound represents a mg amount per 1 kg of a mouse weight (mg/kg).
Significant deference was tested, by 5% for both sides of the levels of significance, in accordance with the Kaplan-Meier method Logrank test (comparison of multiple groups), on the survival time distribution of each of the substances to be tested and control substance administration groups and sterile physiological saline administration group. SAS release 8.2 (SAS Institute Japan) was used in the Kaplan-Meier method Logrank test. (T/C(%)=[survival time of administration group (integrated value)/survival time of control group (integrated value)]×100)

[2] = system: Aspergillus niger ATCC 8740; experiment: Antifungal activity test (in vitro), MIC; assay type: cell-based; conditions: ATCC8740
Description: Minimum inhibitory concentration (MIC) of each of the compounds obtained in Examples 1 to 12 was measured for respective fungi at MOS Pharm Service, by the methods described in Antimicrobial Agents and Chemotherapy, vol. 3, pp. 40-48 (1973), Antimicrobial Agents and Chemotherapy, vol. 33, pp. 215-222 (1989) and Antimicrobial Agents and Chemotherapy, vol. 38, pp. 2362-2368 (1994). The measuring conditions are shown in the following. In this case, Voriconazol was used as a comparative compound. Aspergillus niger ATCC 8740; Cultured at 28° C. for 2 days using potato dextrose broth, and this was used as a cell suspension. Each of the compounds of the invention was adjusted to a concentration of 1% by weight using dimethyl sulfoxide (DMSO) and a medium similar to the respective medium used in the above-mentioned fungal culture, having a final concentration of from 0.001 to 100 μg/ml, was prepared. Each of the inoculation cell suspensions prepared by the above-mentioned methods was inoculated onto this agar plate. […] In this connection, Voriconazol was used as the comparative compound C-1.

[3] = system: Candida albicans ATCC 44858; experiment: Antifungal activity test (in vitro), MIC; assay type: cell-based; conditions: ATCC44858

## C[C@@H](N1CCC(c2ccccn2)CC1)[C@](O)(Cn1cncn1)c1ccc(F)cc1F [I-1, (2R,3R)-2-(2,4-difluorophenyl)-3-(4-pyridin-2-ylpiperidin-1-yl)-1-(1,2,4-triazol-1-yl)butan-2-ol]
[1]; 0.1 mg/kg s.c., day 0
  survival rate: 100
[1]; 0.1 mg/kg s.c., day 1
  survival rate: 100
[1]; 0.1 mg/kg s.c., day 2
  survival rate: 100
[1]; 0.1 mg/kg s.c., day 3
  survival rate: 60
[1]; 0.1 mg/kg s.c., day 4
  survival rate: 60
[1]; 0.1 mg/kg s.c., day 5
  survival rate: 60
[1]; 0.1 mg/kg s.c., day 6
  survival rate: 60
[1]; 0.1 mg/kg s.c., day 7
  survival rate: 20
[1]; 0.1 mg/kg s.c., day 8
  survival rate: 20
[1]; 0.1 mg/kg s.c., day 9
  survival rate: 20
[1]; 0.1 mg/kg s.c., day 10
  survival rate: 20
[1]; 0.1 mg/kg s.c., day 11
  survival rate: 20
[1]; 0.1 mg/kg s.c., day 12
  survival rate: 0
[1]; 0.1 mg/kg s.c.
  T/C (%): 103%
[1]; 1 mg/kg s.c., day 0
  survival rate: 100
[1]; 1 mg/kg s.c., day 1
  survival rate: 100
[1]; 1 mg/kg s.c., day 2
  survival rate: 100
[1]; 1 mg/kg s.c., day 3
  survival rate: 100
[1]; 1 mg/kg s.c., day 4
  survival rate: 100
[1]; 1 mg/kg s.c., day 5
  survival rate: 80
[1]; 1 mg/kg s.c., day 6
  survival rate: 80
[1]; 1 mg/kg s.c., day 7
  survival rate: 60
[1]; 1 mg/kg s.c., day 8
  survival rate: 60
[1]; 1 mg/kg s.c., day 9
  survival rate: 60
[1]; 1 mg/kg s.c., day 10
  survival rate: 40
[1]; 1 mg/kg s.c., day 11
  survival rate: 40
[1]; 1 mg/kg s.c., day 12
  survival rate: 40
[1]; 1 mg/kg s.c., day 13
  survival rate: 20
[1]; 1 mg/kg s.c., day 14
  survival rate: 20
[1]; 1 mg/kg s.c.
  T/C (%): 161%
[1]; 10 mg/kg s.c., day 0
  survival rate: 100
[1]; 10 mg/kg s.c., day 1
  survival rate: 100
[1]; 10 mg/kg s.c., day 2
  survival rate: 100
[1]; 10 mg/kg s.c., day 3
  survival rate: 60
[1]; 10 mg/kg s.c., day 4
  survival rate: 60
[1]; 10 mg/kg s.c., day 5
  survival rate: 60
[1]; 10 mg/kg s.c., day 6
  survival rate: 60
[1]; 10 mg/kg s.c., day 7
  survival rate: 40
[1]; 10 mg/kg s.c., day 8
  survival rate: 40
[1]; 10 mg/kg s.c., day 9
  survival rate: 40
[1]; 10 mg/kg s.c., day 10
  survival rate: 40
[1]; 10 mg/kg s.c., day 11
  survival rate: 40
[1]; 10 mg/kg s.c., day 12
  survival rate: 40
[1]; 10 mg/kg s.c., day 13
  survival rate: 20
[1]; 10 mg/kg s.c., day 14
  survival rate: 20
[1]; 10 mg/kg s.c.
  T/C (%): 132%

## C[C@@H](N1CC=C(c2ccccn2)CC1)[C@](O)(Cn1cncn1)c1ccc(F)cc1F [I-3, (2R,3R)-2-(2,4-difluorophenyl)-3-(3′,6′-dihydro-2,4′-bipyridin-1′(2′H)-yl)-1-(1,2,4-triazol-1-yl)butan-2-ol]
[1]; 0.1 mg/kg s.c., day 0
  survival rate: 100
[1]; 0.1 mg/kg s.c., day 1
  survival rate: 100
[1]; 0.1 mg/kg s.c., day 2
  survival rate: 100
[1]; 0.1 mg/kg s.c., day 3
  survival rate: 60
[1]; 0.1 mg/kg s.c., day 4
  survival rate: 60
[1]; 0.1 mg/kg s.c., day 5
  survival rate: 60
[1]; 0.1 mg/kg s.c., day 6
  survival rate: 60
[1]; 0.1 mg/kg s.c., day 7
  survival rate: 40
[1]; 0.1 mg/kg s.c., day 8
  survival rate: 40
[1]; 0.1 mg/kg s.c., day 9
  survival rate: 40
[1]; 0.1 mg/kg s.c., day 10
  survival rate: 40
[1]; 0.1 mg/kg s.c., day 11
  survival rate: 40
[1]; 0.1 mg/kg s.c., day 12
  survival rate: 40
[1]; 0.1 mg/kg s.c., day 13
  survival rate: 40
[1]; 0.1 mg/kg s.c., day 14
  survival rate: 40
[1]; 0.1 mg/kg s.c.
  T/C (%): 139%
[1]; 1 mg/kg s.c., day 0
  survival rate: 100
[1]; 1 mg/kg s.c., day 1
  survival rate: 100
[1]; 1 mg/kg s.c., day 2
  survival rate: 100
[1]; 1 mg/kg s.c., day 3
  survival rate: 80
[1]; 1 mg/kg s.c., day 4
  survival rate: 80
[1]; 1 mg/kg s.c., day 5
  survival rate: 60
[1]; 1 mg/kg s.c., day 6
  survival rate: 40
[1]; 1 mg/kg s.c., day 7
  survival rate: 40
[1]; 1 mg/kg s.c., day 8
  survival rate: 40
[1]; 1 mg/kg s.c., day 9
  survival rate: 40
[1]; 1 mg/kg s.c., day 10
  survival rate: 40
[1]; 1 mg/kg s.c., day 11
  survival rate: 40
[1]; 1 mg/kg s.c., day 12
  survival rate: 40
[1]; 1 mg/kg s.c., day 13
  survival rate: 40
[1]; 1 mg/kg s.c., day 14
  survival rate: 40
[1]; 1 mg/kg s.c.
  T/C (%): 142%
[1]; 10 mg/kg s.c., day 0
  survival rate: 100
[1]; 10 mg/kg s.c., day 1
  survival rate: 100
[1]; 10 mg/kg s.c., day 2
  survival rate: 100
[1]; 10 mg/kg s.c., day 3
  survival rate: 60
[1]; 10 mg/kg s.c., day 4
  survival rate: 60
[1]; 10 mg/kg s.c., day 5
  survival rate: 60
[1]; 10 mg/kg s.c., day 6
  survival rate: 60
[1]; 10 mg/kg s.c., day 7
  survival rate: 40
[1]; 10 mg/kg s.c., day 8
  survival rate: 20
[1]; 10 mg/kg s.c., day 9
  survival rate: 20
[1]; 10 mg/kg s.c., day 10
  survival rate: 20
[1]; 10 mg/kg s.c., day 11
  survival rate: 20
[1]; 10 mg/kg s.c., day 12
  survival rate: 20
[1]; 10 mg/kg s.c., day 13
  survival rate: 20
[1]; 10 mg/kg s.c., day 14
  survival rate: 20
[1]; 10 mg/kg s.c.
  T/C (%): 116%
[2]
  MIC: 1 µg/mL (≈ 2.43 µM)
[3]
  MIC: 1 µg/mL (≈ 2.43 µM)
